From patent US9963462B2 (priority 2015, dated 2018)
pIC50: −log10 of the molar value.

What was measured:
[1] = target: SNAP-hSPR (sepiapterin reductase, SPR) (Homo sapiens, UniProt P35270); assay: biochemical; format: binding; settings: terbium labelled SNAP-hSPR / SSZ labelled SNAP-EGFP; read-out: hTR-FRET IC50
[2] = test system: BH4 levels in SK-N-BE (2) cells; assay: SKN-N-BE (2) cellular assay, BH4 levels by LC-MS; format: cell-based; settings: Homo sapiens, SKNBE2, read-out: SK-N-BE(2) IC50, SK-N-BE (2) cells, BH4 levels by LC-MS
Protocol: SKN-N-BE(2) Cellular Assay: SK-N-BE (2) cells were seeded in sterile, 96-well plates and incubated for 12-24 hours at 37° C. with 5% CO2 supply. Media was removed and fresh DMEM/F-12 media (containing Glutamine & Pen/Strep but no FBS) was added. Compounds (at different concentrations) were added to different wells. The plates were then incubated for 6-48 hours at 37° C. with 5% CO2 supply. Plates were then centrifuged and the supernatant was removed. The plates were then optionally washed once with PBS. They were then sealed and stored at −80° C. or immediately used. The cells were lysed and the level of BH4 was assessed by LC-MS.
Compounds were assayed for SPR inhibitory activity using a SKN-N-BE (2) cellular assay according to the following procedure. SK-N-BE (2) cells were seeded in sterile, 96-well plates and incubated for 12-24 hours at 37° C. with 5% CO2 supply. Media was removed and fresh DMEM/F-12 media (containing Glutamine & Pen/Strep but no FBS) was added. Compounds (at different concentrations) were added to different wells. The plates were then incubated for 6-48 hours at 37° C. with 5% CO2 supply. Plates were then centrifuged and the supernatant was removed. The plates were then optionally washed once with PBS. They were then sealed and stored at −80° C. or immediately used in the next step. The cells were lysed and the levels of BH4 were assessed by LC-MS.

Sequence of SNAP-hSPR (sepiapterin reductase, SPR) (P35270 whole entry): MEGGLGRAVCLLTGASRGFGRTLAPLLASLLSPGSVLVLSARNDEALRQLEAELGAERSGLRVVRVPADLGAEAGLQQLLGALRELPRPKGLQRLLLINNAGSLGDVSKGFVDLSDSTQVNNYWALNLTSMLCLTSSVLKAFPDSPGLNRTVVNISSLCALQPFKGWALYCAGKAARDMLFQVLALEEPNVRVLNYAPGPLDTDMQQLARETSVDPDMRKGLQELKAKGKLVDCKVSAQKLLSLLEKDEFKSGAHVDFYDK

Cc1c(C(=O)N2CCN(c3ccccc3)CC2)cnn1-c1nc2c(c(=O)[nH]1)CCC2 [Q-0545]
pIC50 [1]: 8.70
pIC50 [2]: 7.39

O=C(c1cnn(-c2nc3sccc3c(=O)[nH]2)c1)N1CCC(C2CC2)CC1 [Q-0751]
pIC50 [1]: 8.52
pIC50 [2]: 6.70

O=C(c1cnn(-c2nn3cccc3c(=O)[nH]2)c1)N1CCC(S(=O)(=O)c2ccc(F)c(F)c2)CC1 [Q-0716]
pIC50 [1]: 8.70
pIC50 [2]: 6.40

Cc1c(C(=O)N2CCC3(CCCN3Cc3ccccc3)C2)cnn1-c1nc2ccsc2c(=O)[nH]1 (stereo not shown) [Q-0601]
pIC50 [1]: 8.30
pIC50 [2]: 7.00

Cc1c(C(=O)N(CCC#N)C2CCCCC2)cnn1-c1nc2c(c(=O)[nH]1)CCC2 [Q-0487]
pIC50 [1]: 8.52
pIC50 [2]: 6.22

Cc1cc(=O)[nH]c(-n2ncc(C(=O)NCCC(F)(F)F)c2C)n1 [Q-0367]
pIC50 [1]: 7.15
pIC50 [2]: 4.96

Cc1c(C(=O)O)nnn1-c1nn2cccc2c(=O)[nH]1 [Q-0779]
pIC50 [1]: 7.70
pIC50 [2]: 5.00

COC1(c2ccccc2)CCN(C(=O)c2cnn(-c3nc4c(c(=O)[nH]3)CCC4)c2C)CC1 [Q-0514]
pIC50 [1]: 8.15
pIC50 [2]: 7.24

Cc1c(C(=O)N2CCC(C)CC2C)cnn1-c1nc2ccsc2c(=O)[nH]1 (stereo not shown) [Q-0400]
pIC50 [1]: 8.40
pIC50 [2]: 6.70

Cc1cc(=O)[nH]c(-n2nc(C)c(C(=O)N3CCc4ccccc4C3)c2C)n1 [Q-0375]
pIC50 [1]: 7.70
pIC50 [2]: 5.60

O=C(O)c1cn(-c2nn3cccc3c(=O)[nH]2)nn1 [Q-0774]
pIC50 [1]: 6.70
pIC50 [2]: 5.00

Cc1cc(=O)[nH]c(-n2ncc(C(=O)NC3CCCC3)c2C)n1 [Q-0280]
pIC50 [1]: 7.22
pIC50 [2]: 4.80

O=C(c1cnn(-c2nc3ccsc3c(=O)[nH]2)c1)N1CCC(CC(F)(F)F)CC1 [Q-0712]
pIC50 [1]: 8.70
pIC50 [2]: 6.52

Cc1c(C(=O)N2CCc3ccccc3C2)cnn1-c1nc2ccccc2c(=O)[nH]1 [Q-0323]
pIC50 [1]: 6.52
pIC50 [2]: 4.46

Cc1c(C(=O)N2CCC(c3c[nH]c4ccccc34)CC2)cnn1-c1nc2ccsc2c(=O)[nH]1 [Q-0560]
pIC50 [1]: 8.52
pIC50 [2]: 7.92

Cc1c(C(=O)N2CCC(c3nc4cc(F)ccc4s3)CC2)cnn1-c1nc2c(c(=O)[nH]1)CCC2 [Q-0587]
pIC50 [1]: 8.00
pIC50 [2]: 7.68

Cc1c(C(=O)N2CCC(OCC(F)(F)F)CC2)cnn1-c1nc2c(c(=O)[nH]1)CCC2 [Q-0521]
pIC50 [1]: 8.10
pIC50 [2]: 7.00

Cc1c(C(=O)N2CCC(c3nc4ccccc4s3)CC2)ccnc1-c1nc2ccsc2c(=O)[nH]1 [Q-0605]
pIC50 [1]: 6.70
pIC50 [2]: 5.00

Cc1c(C(=O)N2CCC3OCCCC3C2)cnn1-c1nc2c(c(=O)[nH]1)CCC2 (stereo not shown) [Q-0576]
pIC50 [1]: 8.22
pIC50 [2]: 7.00

CCN(Cc1ccccc1)C(=O)c1cnn(-c2nc3c(c(=O)[nH]2)CCC3)c1C [Q-0490]
pIC50 [1]: 8.15
pIC50 [2]: 7.00

Cc1c(C(=O)N2CCC(c3nc4cc(F)ccc4s3)CC2)cnn1-c1nn2cccc2c(=O)[nH]1 [Q-0604]
pIC50 [1]: 8.15
pIC50 [2]: 7.14

Cc1cc(=O)[nH]c(-n2ncc(C(=O)N3C4CCC3CC4)c2C)n1 [Q-0329]
pIC50 [1]: 8.00
pIC50 [2]: 5.46

Cc1c(C(=O)N2CC[C@@H](N(C)C(=O)OC(C)(C)C)C2)cnn1-c1nc2ccsc2c(=O)[nH]1 [Q-0549]
pIC50 [1]: 8.40
pIC50 [2]: 6.40

Cc1c(C(=O)N2CCC(C(F)(F)F)C2)cnn1-c1nc2ccsc2c(=O)[nH]1 (stereo not shown) [Q-0403]
pIC50 [1]: 8.05
pIC50 [2]: 5.96

Cc1c(C(=O)N2CCN(C(=O)C34CC(C(=O)O)(C3)C4)CC2)cnn1-c1nc2c(c(=O)[nH]1)CCC2 [Q-0627, 3-(4-(5-methyl-1-(4-oxo-4,5,6,7-tetrahydro-3H-cyclopenta[d]pyrimidin-2-yl)-1H-pyrazole-4-carbonyl)piperazine-1-carbonyl)bicyclo[1.1.1]pentane-1-carboxylic acid]
pIC50 [1]: 8.05
pIC50 [2]: 5.00

Cc1c(C(=O)N2CC2c2ccccc2)cnn1-c1nc2c(c(=O)[nH]1)CCC2 (stereo not shown) [Q-0596]
pIC50 [1]: 8.40
pIC50 [2]: 7.80

Cc1ccccc1N1CCN(C(=O)c2cnn(-c3nc4c(c(=O)[nH]3)CCC4)c2C)CC1 [Q-0485]
pIC50 [1]: 8.05
pIC50 [2]: 7.21

Cc1c(C(=O)N2CCC(c3nc4ccccc4s3)CC2)cnn1-c1nn2c(F)ccc2c(=O)[nH]1 [Q-0607]
pIC50 [1]: 8.30
pIC50 [2]: 7.06

Cc1nc(-n2ncc(C(=O)N3c4ccccc4C[C@H]3C)c2C)[nH]c(=O)c1C (single isomer, unassigned) [Q-0416]
pIC50 [1]: 7.70
pIC50 [2]: 5.55

O=C(c1cnn(-c2nc3ccsc3c(=O)[nH]2)c1)N1CCC(C(F)(F)F)CC1 [Q-0517]
pIC50 [1]: 8.70
pIC50 [2]: 7.00

Cc1c(C(=O)N2CCC3(CCCCN3C(=O)OC(C)(C)C)C2)cnn1-c1nc2c(c(=O)[nH]1)CCC2 (stereo not shown) [Q-0552]
pIC50 [1]: 8.15
pIC50 [2]: 7.42

Cc1c(C(=O)N2CCC(c3c[nH]c4cc(F)ccc34)CC2)cnn1-c1nc2c(c(=O)[nH]1)CCC2 [Q-0565]
pIC50 [1]: 8.22
pIC50 [2]: 7.96
